Earlier results on one molecule are cited in patent US20090093547A1, “Compositions and Methods for Treating Premature Ejaculation” (Sciele Pharma, Inc., priority 2007, published 2009).

Structures can show the parent of a compound that is named as a salt.

For this data set the following is noted: hydrochloride salt crystallized from ethanol and isopropyl ether.

As for `CCCNC(C)C(=O)Nc1ccccc1C` (stereo not shown) [Prilocalne hydrochloride salt, Prilocalne], the solubility in water entry is on record as “readily soluble”.
